Experimental data reported in US20140018418A1 (priority 2007, published 2014).
Read-outs that look alike come from different tables or passages of the source.

Tests used:
[1] = tested on: A/Hanoi/UT30408(clone 7)/2005 (H5N1); parameters: species or system mice (Balb/c); conditions: mouse, in vivo
[2] = tested on: H5N1 influenza virus A/Hanoi/30408/2005 (clone 7), oseltamivir sensitive strain; assay: microbe, parasite or virus in culture; format: cell-based

5-Acetamido-4-guanidino-9-O-octanoyl-2,3,4,5-tetradeoxy-7-O-methyl-D-glycero-D-galacto-non-2-enopyranosoic acid [Compound of Preparation Example 1]
number of mice surviving, Day 10 [1]: 7

CO[C@@H]([C@@H]1OC(C(=O)O)=C[C@H](NC(=N)N)[C@H]1NC(C)=O)[C@H](O)CO [Compound of Preparation Example 2, 5-Acetamido-4-guanidino-2,3,4,5-tetradeoxy-7-O-methyl-D-glycero-D-galacto-non-2-enopyranosoic acid]
IC50 ([2]; Influenza A virus, H5N1, MDCK, read-out: Viral Proliferation Inhibitory Activity (IC50, nM)): 0.43 nM

CC(=O)N[C@H]1[C@H]([C@H](O)[C@H](O)CO)OC(C(=O)O)=C[C@@H]1N=C(N)N [Zanamivir, reference compound]
IC50 ([2]; read-out: Viral Proliferation Inhibitory Activity (IC50)): 3.3 nM
